Measured values reported in US20240197724A1, “THERAPEUTIC AGENT FOR GAIT DISTURBANCE” (NIPPON SHINYAKU CO., LTD., priority 2021, published 2024).

What was measured:
[1] = system: FeCl3-induced thrombus in femoral artery; assay: Antithrombotic effect in rat FeCl3-induced thrombus model; type: in vivo; conditions: male Wistar rats
Procedure: Methylcellulose (METOLOSE, SM-400, Shin-Etsu Chemical Co., Ltd.) was dissolved in distilled water, to prepare a 0.5 w/v% methylcellulose aqueous solution. The 0.5 w/v% methylcellulose aqueous solution was added to the compound A, to prepare a 10 mg/mL suspension of compound A in the 0.5 w/v% methylcellulose aqueous solution. • (b) Beraprost Sodium The 0.5 w/v% methylcellulose aqueous solution was added to beraprost sodium, to prepare a 1.0 mg/mL aqueous solution of beraprost sodium in the 0.5 w/v% methylcellulose aqueous solution. • (c) Cilostazol The 0.5 w/v% methylcellulose aqueous solution was added to cilostazol, to prepare a 150 or 50 mg/mL suspension of cilostazol. Urethane (Wako Pure Chemical Industries, Ltd.) was dissolved in saline (Otsuka Pharmaceutical Factory, Inc.) to prepare a solution of 0.3 g/mL. The urethane saline solution was subcutaneously administered to rats at 4 mL per 1 kg of body weight (1.2 g/kg) to anesthetize them. […] Male Wistar rats aged 9 to 10 weeks were used as rats. The abdomen of the rat was incised to expose the duodenum, and drugs were injected 2 to 3 mm downstream from the vicinity of the gastric-duodenal boundary using a 26G injection needle and syringe. The compound A and beraprost sodium were administered at a dose of 1 mL/kg, and cilostazol was administered at a dose of 2 mL/kg. The skin on the right thigh of the rat was incised to expose the femoral artery, and the vein and nerve were dissected. A parafilm was placed under the dissected femoral artery to completely separate the femoral artery, vein, and nerve. A laser Doppler blood flowmeter (ALF21, Advance) probe was placed on the femoral artery to start measuring the blood flow (mL/min/g). 60 minutes after the administration for the compound A-administered group, 30 minutes after the administration for the beraprost sodium-administered group, and 120 minutes after the administration for the cilostazol-administered group, a filter paper (2 mm×5 mm) impregnated with a 10 w/w% FeCl3 aqueous solution was placed on the femoral artery, and changes in blood flow were measured using a biometric data processing system (FLO-WB, Omega Wave Co., Ltd.) and recorded.

[2] = system: ischemic gait disturbance caused by ligation of the iliac artery; assay: Gait improvement in rat ischemic gait disturbance model (iliac artery ligation, treadmill); type: in vivo; conditions: male Wistar rats, 3 mg/kg orally twice a day for 9 days from one day after surgery; measured 3, 7 and 10 days after surgery; p<0.01 vs control
Procedure: Wistar rats (male, 7 week-old) (available from CHARLES RIVER LABORATORIES JAPAN, INC.) were subjected to gait training using a treadmill (MK-680, available from Muromachi Kikai Co., Ltd.) for three consecutive days-6 days before surgery, 5 days before surgery, and 4 days before surgery. On the day before surgery, the pre-value of the walking distance was measured, the animals were divided into groups, and sham surgery or iliac artery ligation surgery described in i) below was performed. […] Walking time was measured 3 days, 7 days and 10 days after the surgery. Based on the measured walking time, the walking distance was calculated. • i) Method of Iliac Artery Ligation Surgery Rats were anesthetized by intraperitoneal administration of 50 mg/kg pentobarbital sodium (Somnopentyl®, Schering-Plough Animal Health). […] The ligation of the iliac artery was performed by the data manager and this information was not disclosed to the gait tester until the study was completed. • ii) Walking Time Measurement Method The speed of the treadmill belt was increased from 15 m/min to 35 m/min by increments of 5 m/min in each 3 minutes, and the time the rat got on the electrical stimulation plate at the rear end of the belt was recorded as the dropout time. […] After the measurement, the dropout time was recorded in the gait test record. […]

[3] = system: gait disturbance in patient with arteriosclerosis obliterans; assay: Improvement of gait disturbance in patients with arteriosclerosis obliterans (placebo-controlled, double-blind study); type: in vivo, human; conditions: Japanese patients, 0.1 to 1.6 mg twice a day for 24 to 36 weeks
Procedure: As a placebo-controlled, double-blind comparative study, Japanese patients with arteriosclerosis obliterans (selected by resting ABI, or the like) received placebo or selexipag (which is compound A) at 0.1 to 1.6 mg twice a day for 24 to 36 weeks (dose adjustment period: 8 to 20 weeks, dose maintenance period: 16 weeks).

CC#CCC(C)[C@H](O)/C=C/[C@@H]1[C@H]2c3cccc(CCCC(=O)O)c3O[C@H]2C[C@H]1O (mixture of isomers) [beraprost sodium]
vascular occlusion time ([1]; 0.3 mg/kg intraduodenal, 30 minutes before induction): not prolonged
reduction in blood pressure ([1]; 0.3 mg/kg intraduodenal, observed over time): 25%
vascular occlusion time ([1]; 1 mg/kg intraduodenal, administration 30 minutes before induction, vehicle control about 12 to 15 minutes): about 43 minutes

O=C1CCc2cc(OCCCCc3nnnn3C3CCCCC3)ccc2N1 [cilostazol]
vascular occlusion time ([1]; 150 or 50 mg/mL suspension at 2 mL/kg intraduodenal, 120 minutes before induction): Neither dose of cilostazol prolonged the occlusion time

CC(C)N(CCCCOCC(=O)NS(C)(=O)=O)c1cnc(-c2ccccc2)c(-c2ccccc2)n1 [compound A, 2-{4-[N-(5,6-diphenylpyrazine-2-yl)-N-isopropylamino]butyloxy}-N-(methylsulfonyl) acetamide]
improvement of gait disturbance (walking distance, FIG. 1) [2]: significantly improved gait disturbance
improvement of gait disturbance (treadmill, maximum walking time, Gartner method) [3]: Improvement of patient's gait disturbance was confirmed
vascular occlusion time ([1]; 10 mg/kg intraduodenal, administration 60 minutes before induction, vehicle control about 12 to 15 minutes): about 22 minutes
